According to ChEMBL document CHEMBL1138383, “2-Arylidenedihydroindole-3-ones: design, synthesis, and biological activity on bladder carcinoma cell lines” (2007):

Tests used:
J82 [1] = test: Effect on viability of J82 cells with FGFR3 K650E mutation at 10 uM after 72 hrs; assay type: functional, Homo sapiens
[2] = Effect on viability of DAG1 cells with FGFR3 S249C mutation at 10 uM after 72 hrs; assay type: functional, Homo sapiens
RT-112 [3] = test: Effect on viability of RT112 cells overexpressing wild-type FGFR3 at 10 uM after 72 hrs; assay type: functional, Homo sapiens
[4] = Decrease in p-Pyk2 antigen expression level in DAG1 cells with FGFR3 S249C mutation at 10 uM after 6 hrs by flow cytometry relative to control; assay type: functional, cell-based; details: Homo sapiens
[5] = Induction of apoptosis in DAG1 cells with FGFR3 S249C mutation at 10 uM after 48 hrs by flow cytometry; assay type: functional, Homo sapiens
J82 [6] = test: Induction of apoptosis in J82 cells with FGFR3 K650E mutation at 10 uM after 48 hrs by flow cytometry; assay type: functional, Homo sapiens
RT-112 [7] = test: Induction of apoptosis in RT112 cells overexpressing wild-type FGFR3 at 10 uM after 48 hrs by flow cytometry; assay type: functional, Homo sapiens
RT-112 [8] = test: Decrease in p-Stat5 antigen expression level in RT112 cells overexpressing wild-type FGFR3 at 10 uM after 6 hrs by flow cytometry relative to control; assay type: functional, Homo sapiens
[9] = Decrease in p-Stat5 antigen expression level in DAG1 cells with FGFR3 S249C mutation at 10 uM after 6 hrs by flow cytometry relative to control; assay type: functional, cell-based; details: Homo sapiens
RT-112 [10] = test: Decrease in p-Pyk2 antigen expression level in RT112 cells overexpressing wild-type FGFR3 at 10 uM after 6 hrs by flow cytometry relative to control; assay type: functional, Homo sapiens

| SMILES | Activity (J82 [1]) [%] | Activity [2] [%] | Activity (RT-112 [3]) [%] | Activity [4] | Activity [5] [%] | Activity (J82 [6]) [%] | Activity (RT-112 [7]) [%] | Activity (RT-112 [8]) | Activity [9] | Activity (RT-112 [10]) |
| --- | --- | --- | --- | --- | --- | --- | --- | --- | --- | --- |
| COc1cc2c(c(OC)c1)C(=O)/C(=C/c1c(F)cccc1Cl)N2 | 95 | 91 | 93 | – | – | – | – | – | – | – |
| COc1cc2c(c(OC)c1)C(=O)/C(=C/c1[nH]cnc1C)N2 | 90 | 89 | 92 | – | – | – | – | – | – | – |
| CCc1ccc(/C=C2\Nc3cc(OC)cc(OC)c3C2=O)cc1 | 99 | 98 | 97 | – | – | – | – | – | – | – |
| COc1cc2c(c(OC)c1)C(=O)/C(=C/c1ccccc1F)N2 | 97 | 58 | 48 | 2 | 86 | 3 | 20 | 2.5 | 9.5 | 1.3 |
| COc1cc2c(c(OC)c1)C(=O)/C(=C/c1ccc(Cl)cc1)N2 | 94 | 99 | 93 | – | – | – | – | – | – | – |
| COc1cc2c(c(OC)c1)C(=O)/C(=C/c1ncc[nH]1)N2 | 89 | 90 | 92 | – | – | – | – | – | – | – |
